System: NMDAR-mediated Ca2+ transients in dSPN spines
Assay: NMDAR-mediated Ca2+ transients in dSPN spines, two-photon glutamate uncaging and Fluo-5F imaging
Assay type: cell-based, mice
Excerpt: dSPNs were identified by somatic tdTomato expression using two-photon excited fluorescence that was induced and detected using a Prairie Ultima laser scanning microscope system (Prairie Technologies). Fluorescent and bright-field images were viewed in register using a Dodt contrast detector system. Cells were patched using video microscopy with a Hitachi CCD camera and an Olympus 60×/1.0 NA lens. Green (Fluo 5F) and red (tdTomato; Alexa 568) signals were acquired using 810 nm excitation (Verdi/Mira laser). Following patch rupture the internal solution was allowed to equilibrate for 10-15 minutes before imaging. High magnification z-series of dendrite regions 50-100 μm from the soma were acquired with 0.072 μm2 pixels with 4 μs dwell time and 0.3 μm z-steps. […]
dSPNs were loaded with 25 μM Alexa 568 and 300 μM Fluo 5F via the internal recording solution, containing (in mM): 120 CsMeSO3, 5 NaCl, 10 TEA-Cl, 10 HEPES, 5 QX-314, 4 ATP-Mg and 0.3 GTP-Na. […] Changes in Fluo 5F fluorescence were averaged from 3 trials and measured as ΔF/Fo.
Glutamate uncaging was achieved using a Verdi/Mira (Coherent Laser Group, Santa Clara, Calif.) (Plotkin et al., 2014). […] Photolysis power was tuned via a third Pockels cell modulator (Con Optics, Danbury, Conn.) to achieve uEPSCs≤5 pA. uEPSC amplitudes were measured from averaged (3-5 repetitions) traces. […]

Compound: Cc1cc(C)c2c(N)c(C(=O)NCc3ccc(Cl)cc3)sc2n1 [VU10010]
- decrease of NMDAR-mediated Ca2+ transients (SKF81297 3 μM, then muscarine and the M4R PAM co-applied, n=12): ~40%
- NMDAR-mediated Ca2+ transients (VU10010 5 μM, dSPNs from LID mice): reduced NMDAR-mediated Ca2+ transients
